# According to patent publication EP4778924A1 (Huons Co., Ltd., priority 2023, dated 2025):
# Structures can show the parent of a compound that is named as a salt.
# Target: T1, Proton Pump (H^+,K^+-ATPase) (Sus scrofa, UniProt P19156)
# T1 construct: gastric vesicles were isolated from porcine stomachs; from tissue; host or cells: porcine stomach (gastric vesicles)
# Experiment: Inhibitory activity on proton pump (H+,K+-ATPase) activity, porcine gastric vesicles, malachite green readout
# Type: biochemical
# Details: porcine gastric vesicles, pH 6.5, 8 mM KCl, 0.2 mM ATP
# Protocol: Specifically, gastric vesicles were isolated from porcine stomachs, and the protein content of the vesicles was quantified using a BSA kit (Bio-Rad, 5000205). All reactions were performed in 96-well plates with a reaction volume of […] containing 100 ng of vesicles. 10 mM valinomycin and the test compound were added to reaction buffer (50 mM Tris-HEPES, 5 mM MgCl2, 8 mM KCl, pH 6.5) containing porcine gastric vesicles at various concentrations, and the mixture was incubated at 37°C for 30 minutes. DMSO or test compounds at different concentrations were added after diluting them to a final DMSO concentration of 0.1%. 0.2 mM adenosine triphosphate (ATP) was then added to the reaction buffer and incubated at 37°C for 20 minutes. The reaction was stopped with 0.2% Tween 20, followed by the addition of malachite green (Sigma Aldrich, MAK307) and incubation at room temperature for 30 minutes. The optical density (OD) value was measured at 620 nm using a microplate reader (Spectramax M5e, Molecular devices). The percent (%) inhibition was derived from the OD values of the control group and various concentrations of the test compounds. The IC50 of the test compounds was analyzed using nonlinear regression using the GraphPad Prism8 program using the % inhibition value at each concentration.
# T1 sequence (P19156 2-1034 limits assumed): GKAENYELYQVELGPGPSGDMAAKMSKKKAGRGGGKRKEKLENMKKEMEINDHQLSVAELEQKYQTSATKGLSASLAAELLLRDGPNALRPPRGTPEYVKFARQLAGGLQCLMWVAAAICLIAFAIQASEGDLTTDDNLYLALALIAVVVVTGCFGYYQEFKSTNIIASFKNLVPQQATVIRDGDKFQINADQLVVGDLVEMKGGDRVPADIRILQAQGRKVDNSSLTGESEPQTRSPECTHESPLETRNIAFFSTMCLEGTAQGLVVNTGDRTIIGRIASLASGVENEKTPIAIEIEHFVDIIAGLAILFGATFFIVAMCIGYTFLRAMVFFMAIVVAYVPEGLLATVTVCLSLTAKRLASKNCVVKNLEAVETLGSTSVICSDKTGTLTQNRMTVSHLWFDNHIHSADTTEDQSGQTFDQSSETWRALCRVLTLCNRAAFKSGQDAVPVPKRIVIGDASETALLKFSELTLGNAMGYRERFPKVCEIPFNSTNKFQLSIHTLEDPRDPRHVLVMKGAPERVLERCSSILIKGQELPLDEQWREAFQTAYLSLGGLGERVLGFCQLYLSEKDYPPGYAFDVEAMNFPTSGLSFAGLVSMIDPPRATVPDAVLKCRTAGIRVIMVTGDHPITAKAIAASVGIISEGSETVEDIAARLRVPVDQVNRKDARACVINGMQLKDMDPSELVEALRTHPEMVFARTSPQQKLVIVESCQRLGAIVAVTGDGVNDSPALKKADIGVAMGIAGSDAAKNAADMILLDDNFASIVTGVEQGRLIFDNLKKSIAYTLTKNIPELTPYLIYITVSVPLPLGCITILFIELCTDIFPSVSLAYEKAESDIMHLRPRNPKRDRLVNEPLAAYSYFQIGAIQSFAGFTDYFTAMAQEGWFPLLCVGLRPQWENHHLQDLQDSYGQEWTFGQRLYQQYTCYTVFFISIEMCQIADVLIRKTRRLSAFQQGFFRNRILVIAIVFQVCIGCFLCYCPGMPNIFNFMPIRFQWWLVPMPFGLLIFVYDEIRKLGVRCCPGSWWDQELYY
# T1 sequence (P18434 whole entry partner): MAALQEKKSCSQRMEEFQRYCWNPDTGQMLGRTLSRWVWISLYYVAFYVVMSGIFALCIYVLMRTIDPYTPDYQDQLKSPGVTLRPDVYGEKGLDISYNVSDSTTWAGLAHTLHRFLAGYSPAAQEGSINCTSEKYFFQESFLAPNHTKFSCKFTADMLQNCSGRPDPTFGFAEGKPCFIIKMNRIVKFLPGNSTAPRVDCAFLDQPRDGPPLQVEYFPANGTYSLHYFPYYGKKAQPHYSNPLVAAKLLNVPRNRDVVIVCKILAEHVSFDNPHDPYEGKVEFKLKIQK
row,Compound,IC50
1,"Cc1cccc(C)c1CNc1cc(NC(=O)C2CCC2)cn2c(C)c(C)nc12 [Example 5, N-(8-((2,6-dimethylbenzyl)amino)-2,3-dimethylimidazo[1,2-a]pyridin-6-yl)cyclobutanecarboxamide]",100 to 500 nM
2,"Cc1cccc(C)c1CNc1cc(NC(=O)C(C)(C)C)cn2c(C)c(C)nc12 [Example 8, N-(8-((2,6-dimethylbenzyl)amino)-2,3-dimethylimidazo[1,2-a]pyridin-6-yl)pivalamide]",> 500 nM
3,"Cc1cccc(C)c1CNc1cc(NC(=O)[C@@]2(C)CCN2)cn2c(C)c(C)nc12 [Example 75, (R)-N-(8-((2,6-dimethylbenzyl)amino)-2,3-dimethylimidazo[1,2-a]pyridin-6-yl)-2-methylazetidine-2-carboxamide hydrochloride]",100 to 500 nM
4,"Cc1cccc(C)c1CNc1cc(NC(=O)c2ncco2)cn2c(C)c(C)nc12 [Example 14, N-(8-((2,6-dimethylbenzyl)amino)-2,3-dimethylimidazo[1,2-a]pyridin-6-yl)oxazole-2-carboxamide]",100 to 500 nM
5,"CC(=O)Oc1ccc(/C=C/C(=O)Nc2cc(NCc3c(C)cccc3C)c3nc(C)c(C)n3c2)cc1 [Example 107, (E)-4-(3-((8-((2,6-dimethylbenzyl)amino)-2,3-dimethylimidazo[1,2-a]pyridin-6-yl)amino)-3-oxoprop-1-en-1-yl)phenyl acetate]",> 500 nM
6,"Cc1cccc(C)c1CNc1cc(NC(=O)N2CCC(c3ccccc3)C2)cn2c(C)c(C)nc12 (centres unmarked) [Example 84, N-(8-((2,6-dimethylbenzyl)amino)-2,3-dimethylimidazo[1,2-a]pyridin-6-yl)-3-phenylpyrrolidine-1-carboxamide]",100 to 500 nM
7,"Cc1cc(F)cc(C)c1CNc1cc(NC(=O)[C@H](C)O)cn2c(C)c(C)nc12 [Example 114, (S)-N-(8-((4-fluoro-2,6-dimethylbenzyl)amino)-2,3-dimethylimidazo[1,2-a]pyridin-6-yl)-2-hydroxypropanamide]",100 to 500 nM
8,"Cc1cccc(C)c1CNc1cc(N2C(=O)NCCNC2=O)cn2c(C)c(C)nc12 [Example 72, 3-(8-((2,6-dimethylbenzyl)amino)-2,3-dimethylimidazo[1,2-a]pyridin-6-yl)-1,3,5-triazepane-2,4-dione]",100 to 500 nM
9,"Cc1cccc(C)c1CNc1cc(NC(=O)CN2CCC2=O)cn2c(C)c(C)nc12 [Example 81, N-(8-((2,6-dimethylbenzyl)amino)-2,3-dimethylimidazo [1,2-a]pyridin-6-yl)-2-(2-oxoazetidin-1-yl)acetamide]",50 to 100 nM
10,"Cc1cccc(C)c1CNc1cc(NC(=O)N2CCC2)cn2c(C)c(C)nc12 [Example 6, N-(8-((2,6-dimethylbenzyl)amino)-2,3-dimethylimidazo[1,2-a]pyridin-6-yl)azetidine-1-carboxamide]",50 to 100 nM
11,"Cc1cccc(C)c1CNc1cc(NC(=O)NCC2CC2)cn2c(C)c(C)nc12 [Example 30, 1-(cyclopropylmethyl)-3-(8-((2,6-dimethylbenzyl)amino)-2,3-dimethylimidazo[1,2-a]pyridin-6-yl)urea hydrochloride]",100 to 500 nM
12,"tert-butyl (2-(3-(8-((2,6-dimethylbenzyl)amino)-2,3-dimethylimidazo[1,2-a]pyridin-6-yl)ureido)ethyl)carbamate hydrochloride [Example 42]",100 to 500 nM
13,"Cc1cccc(C)c1CNc1cc(NC(=O)[C@@H]2CCN2)cn2c(C)c(C)nc12 [Example 35, (S)-N-(8-((2,6-dimethylbenzyl)amino)-2,3-dimethylimidazo[1,2-a]pyridin-6-yl)azetidine-2-carboxamide hydrochloride]",50 to 100 nM
14,"Cc1cccc(C)c1CNc1cc(NC(=O)[C@@H](C)N)cn2c(C)c(C)nc12 [Example 20, (R)-2-amino-N-(8-((2,6-dimethylbenzyl)amino)-2,3-dimethylimidazo[1,2-a]pyridin-6-yl)propanamide hydrochloride]",50 to 100 nM
15,"CC(=O)NCC(=O)Nc1cc(NCc2c(C)cccc2C)c2nc(C)c(C)n2c1 [Example 52, 2-acetamido-N-(8-((2,6-dimethylbenzyl)amino)-2,3-dimethylimidazo[1,2-a]pyridin-6-yl)acetamide]",100 to 500 nM

# More lines, now with the values ahead:
row,IC50,Compound
1,50 to 100 nM,"CNC(=O)CNC(=O)Nc1cc(NCc2c(C)cccc2C)c2nc(C)c(C)n2c1 [Example 47, 2-(3-(8-((2,6-dimethylbenzyl)amino)-2,3-dimethylimidazo[1,2-a]pyridin-6-yl)ureido)-N-methylacetamide hydrochloride]"
2,50 to 100 nM,"Cc1cccc(C)c1CNc1cc(NC(=O)[C@H](C)N)cn2c(C)c(C)nc12 [Example 19, (S)-2-amino-N-(8-((2,6-dimethylbenzyl)amino)-2,3-dimethylimidazo[1,2-a]pyridin-6-yl)propanamide hydrochloride]"
3,50 to 100 nM,"Cc1cccc(C)c1CNc1cc(NC(=O)C[C@H]2CCN2)cn2c(C)c(C)nc12 [Example 76, (R)-2-(azetidin-2-yl)-N-(8-((2,6-dimethylbenzyl)amino)-2,3-dimethylimidazo[1,2-a]pyridin-6-yl)acetamide hydrochloride]"
4,50 to 100 nM,"Cc1cccc(C)c1CNc1cc(NC(=O)[C@@H]2CCNC2)cn2c(C)c(C)nc12 [Example 89, (R)-N-(8-((2,6-dimethylbenzyl)amino)-2,3-dimethylimidazo[1,2-a]pyridin-6-yl)pyrrolidine-3-carboxamide hydrochloride]"
5,< 50 nM,"Cc1cccc(C)c1CNc1cc(NC(=O)NCCO)cn2c(C)c(C)nc12 [Example 88, 1-(8-((2,6-dimethylbenzyl)amino)-2,3-dimethylimidazo[1,2-a]pyridin-6-yl)-3-(2-hydroxyethyl)urea citrate]"
6,50 to 100 nM,"CNCC(=O)Nc1cc(NCc2c(C)cccc2C)c2nc(C)c(C)n2c1 [Example 98, N-(8-((2,6-dimethylbenzyl)amino)-2,3-dimethylimidazo[1,2-a]pyridin-6-yl)-2-(methylamino)acetamide hydrochloride]"
7,< 50 nM,"Cc1cc(F)cc(C)c1CNc1cc(NC(=O)C2(O)CC2)cn2c(C)c(C)nc12 [Example 115, N-(8-((4-fluoro-2,6-dimethylbenzyl)amino)-2,3-dimethylimidazo[1,2-a]pyridin-6-yl)-1-hydroxycyclopropane-1-carboxamide]"
8,50 to 100 nM,"Cc1cccc(C)c1CNc1cc(NC(=O)N2Cc3ccccc3C2)cn2c(C)c(C)nc12 [Example 67, N-(8-((2,6-dimethylbenzyl)amino)-2,3-dimethylimidazo[1,2-a]pyridin-6-yl)isoindoline-2-carboxamide]"
9,< 50 nM,"Cc1cccc(C)c1CNc1cc(NC(=O)NC2CC2)cn2c(C)c(C)nc12.Cl [Example 24, 1-cyclopropyl-3-(8-((2,6-dimethylbenzyl)amino)-2,3-dimethylimidazo[1,2-a]pyridin-6-yl)urea hydrochloride]"
10,50 to 100 nM,"Cc1cccc(C)c1CNc1cc(NC(=O)N2Cc3ccncc3C2)cn2c(C)c(C)nc12 [Example 68, N-(8-((2,6-dimethylbenzyl)amino)-2,3-dimethylimidazo[1,2-a]pyridin-6-yl)-1,3-dihydro-2H-pyrrolo[3,4-c]pyridine-2-carboxamide]"
11,< 50 nM,"Cc1cc(F)cc(C)c1CNc1cc(NC(=O)N(C)C)cn2c(C)c(C)nc12 [Example 49, 3-(8-((4-fluoro-2,6-dimethylbenzyl)amino)-2,3-dimethylimidazo[1,2-a]pyridin-6-yl)-1,1-dimethylurea hydrochloride]"
12,50 to 100 nM,"Cc1cc(F)cc(C)c1CNc1cc(N2C(=O)CN(C)C2=O)cn2c(C)c(C)nc12 [Example 116, 3-(8-((4-fluoro-2,6-dimethylbenzyl)amino)-2,3-dimethylimidazolidine[1,2-a]pyridin-6-yl)-1-methylimidazolidine-2,4-dione]"
13,50 to 100 nM,"Cc1cccc(C)c1CNc1cc(NC(=O)[C@H]2CCCCN2)cn2c(C)c(C)nc12 [Example 90, (R)-N-(8-((2,6-dimethylbenzyl)amino)-2,3-dimethylimidazo[1,2-a]pyridin-6-yl)piperidine-2-carboxamide hydrochloride]"
14,< 50 nM,"Cc1cccc(C)c1CNc1cc(NC(=O)CNC(=O)CO)cn2c(C)c(C)nc12 [Example 95, N-(8-((2,6-dimethylbenzyl)amino)-2,3-dimethylimidazo[1,2-a]pyridin-6-yl)-2-(2-hydroxyacetamido)acetamide]"
15,50 to 100 nM,"Cc1cccc(C)c1CNc1cc(NC(=O)N2CCOCC2)cn2c(C)c(C)nc12 [Example 61, N-(8-((2,6-dimethylbenzyl)amino)-2,3-dimethylimidazo[1,2-a]pyridin-6-yl)morpholine-4-carboxamide citrate]"
16,< 50 nM,"Cc1cccc(C)c1CNc1cc(NC(=O)[C@@H]2CNCCN2)cn2c(C)c(C)nc12 [Example 94, (S)-N-(8-((2,6-dimethylbenzyl)amino)-2,3-dimethylimidazo[1,2-a]pyridin-6-yl)piperazine-2-carboxamide hydrochloride]"
17,< 50 nM,"Cc1cccc(C)c1CNc1cc(NC(=O)N2CC(c3ccccc3)C2)cn2c(C)c(C)nc12.O=C(O)CC(O)(CC(=O)O)C(=O)O [Example 77, N-(8-((2,6-dimethylbenzyl)amino)-2,3-dimethylimidazo[1,2-a]pyridin-6-yl)-3-phenylazetidine-1-carboxamide citrate]"

# Same assay, conditions: result in words
row,inhibitory activity against proton pump activity,Compound
1,excellent inhibitory properties,"Cc1cc(F)cc(C)c1CNc1cc(NC(=O)C2(O)CC2)cn2c(C)c(C)nc12 [Example 115, N-(8-((4-fluoro-2,6-dimethylbenzyl)amino)-2,3-dimethylimidazo[1,2-a]pyridin-6-yl)-1-hydroxycyclopropane-1-carboxamide]"
2,excellent inhibitory properties,"Cc1cccc(C)c1CNc1cc(NC(=O)NC2CC2)cn2c(C)c(C)nc12.Cl [Example 24, 1-cyclopropyl-3-(8-((2,6-dimethylbenzyl)amino)-2,3-dimethylimidazo[1,2-a]pyridin-6-yl)urea hydrochloride]"
3,excellent inhibitory properties,"Cc1cccc(C)c1CNc1cc(NC(=O)N2CC(c3ccccc3)C2)cn2c(C)c(C)nc12.O=C(O)CC(O)(CC(=O)O)C(=O)O [Example 77, N-(8-((2,6-dimethylbenzyl)amino)-2,3-dimethylimidazo[1,2-a]pyridin-6-yl)-3-phenylazetidine-1-carboxamide citrate]"
